# Reference: paper PMC2678990, “Stilbene glycosides are natural product inhibitors of FGF-2-induced angiogenesis” (BMC Cell Biology, 2009)
# Legend:
# [1] = system: bovine aortic endothelial cells (BAEC); assay: Proliferation without growth factors (15% FBS); type: cell-based
# Procedure: (§1) Cells were seeded in triplicate at a concentration of 6.0 × 10^5/ml, in 2 ml of complete medium in 6-well plates. […] […] Control wells were treated with 5 μl DMSO. Concentration ranges of test compounds and pre-incubation times were based on pilot studies. After 72 h, cells were washed in PBS, detached in 0.05%w/v trypsin in PBS, and counted on a Coulter counter (Coulter Electronics, Hialeah, FL) set to a threshold of 30 μm. Experiments were performed in triplicate and repeated at least twice.
# [2] = system: human dermal microvascular endothelial cells (HDMEC); assay: Proliferation without growth factors (15% FBS); type: cell-based
# Procedure: as §1
# [3] = system: BAEC; assay: EGF-induced proliferation; type: cell-based, bovine; settings: EGF 75 ng/ml, 72 h, NS = inhibition less than 50%
# Procedure: (§2) Cells were seeded in triplicate at a concentration of 6.0 × 10^5/ml, in 2 ml of complete medium in 6-well plates. […] Growth factors, FGF-2 (25 ng/ml), EGF (75 ng/ml) and VEGF (10 ng/ml) and test compounds at different concentration were added and cells incubated for a further 72 h. Control wells were treated with 5 μl DMSO. Concentration ranges of test compounds and pre-incubation times were based on pilot studies. After 72 h, cells were washed in PBS, detached in 0.05%w/v trypsin in PBS, and counted on a Coulter counter (Coulter Electronics, Hialeah, FL) set to a threshold of 30 μm. Experiments were performed in triplicate and repeated at least twice.
# [4] = system: BAEC; assay: VEGF-induced proliferation; type: cell-based, bovine; settings: 72 h, NS = inhibition less than 50%
# Procedure: as §2
# [5] = system: HDMEC; assay: VEGF-induced proliferation; type: cell-based, human; settings: 72 h, NS = inhibition less than 50%
# Procedure: as §2
# [6] = system: HDMEC; assay: Toxicity: MTT and active caspase-3 assays; type: cell-based, human
# Procedure: Stilbene glycoside toxicity was determined using the MTT and active caspase-3 assays. BAECs or HDMECs (7.5 × 10^3) were seeded in a 96 well plate and incubated for 4 h to allow cell adhesion. The test compound or staurosporine (1 μM), an inducer of active caspase-3 and therefore of apoptosis was added to the wells. Control cells were treated with PBS and the plate was incubated at room temperature for 72 hours. MTT reagent (10 μl) was added followed by incubation at room temperature for 2–4 h. When a purple precipitate was visible, detergent reagent (100 μl) was added to the plates and incubated at room temperature for 2 h in the dark. Absorbance was measured at 570 nm using a microplate reader.
# In the apoptosis assay, HDMECs or BAEC (4 × 10^4/ml) in complete medium were added to the chambers slide and allowed to adhere for 24 h. The test compound (X μM) or staurosporine (1 μM) were added to all wells except control (PBS) and incubated for 24 hours. Wells treated with staurosporine were immediately washed (PBS) and fixed (4% paraformaldehyde) when cell morphology became round (2–4 h). After washing and fixing, cells were permeablized (0.1% Triton X-100; 10 min), washed (× 5~5 min each), air dried and blocked with 1% BSA in 1:50 TBS-Tween for 1 h at room temperature. Cells were incubated with goat anti-active caspase-3 (R&D system, UK; 1% BSA in TBS-Tween) for 1 h. […]
# [7] = system: phospho-ERK1/2 in BAEC; assay: Western blot of ERK1/2 phosphorylation; type: cell-based, bovine; settings: BAEC; FGF-2 25 ng/ml; Western blot
# Procedure: Figure 9 (A) Western blots of p-ERK-1 and -2 were performed on BAEC treated with compound 1 as described below. (B) The bar charts show relative protein expression compared to the control given an arbitrary value of 1.0. All experiments were performed at least twice and a representative example is shown. Lane 1 control, lane 2 FGF-2 (25 ng/ml), lane 3 compound 1 ([…]), lane 4 compound 1 (14.3 μM) + FGF-2, lane 5 compound 1 (28.6 μM), lane 6 compound 1 (28.6 μM) + FGF-2.
# The method is described in detail elsewhere. In brief, cells were lysed in RIPA buffer, protein concentration determined using the Biorad assay, and approximately 20 μg aliquots separated by 12% SDS-PAGE, electroblotted onto nitrocellulose filters (Hoefer, San Francisco, Ca, USA), blocked overnight with 1% BSA in TBS-Tween and incubated for 4 h at RT with characterised antibodies to phosphor-ERK1/2 (AutogenBioclear, mouse monoclonal, 1:1000). α-Actin (Sigma, UK; 1:1000) was used as a loading control. Filters were washed in TBS-Tween and stained with antibodies to peroxidase-conjugated secondary antibody. Proteins were detected with the ECL system (Amersham, UK). Protein expression was estimated spectrophotometrically from band intensity. Results are semi-quantitative and given a numerical value compared to the weakest observed band assigned an arbitrary value of 1.0. […]
# [8] = system: VEGF receptor; assay: ELISA binding assay of VEGF to soluble receptor; settings: results not shown
# Procedure: Competition between growth factors, their cell surface receptors and test compounds was assessed in an ELISA assay as described by. A 96-well plate was coated overnight with 2 μg/ml of the soluble receptors (FGFR-1 or -2 and VEGFR-1 or -2) and blocked with 1% BSA in PBS containing 0.05% Tween-20. The test compound and FGF-2 or VEGF were pre-mixed for 2 h and added to the plate and incubated for 2 h. The plate was washed (× 3 with PBS-Tween-20) and incubated with anti-FGF-2 IgG (1:500 in PBS-Tween-20) or anti-VEGF IgG (!:250 in PBS-Tween-20) for 45 min, washed and incubated with horseradish peroxidase conjugated goat anti-IgG (Santa Cruz, 1:1000) for a further 45 min. After washing (× 3), ABTS peroxidase substrate was added and the absorbance read at 405 nm. IC50 values were calculated from the data using the EZ-Fit enzyme kinetic software (Perella Scientific Inc., Amherst, USA).
smiles,measurement,setting,value
COc1cc(C=Cc2ccc(O)cc2)cc(OC2OC(COC3OC(C)C(O)C(O)C3O)C(O)C(O)C2OC2OC(C)C(O)C(O)C2O)c1 (stereo not shown) [Compound 1],Effect on growth in the absence of growth factors,[1]; 1.4–71.5 μM,no significant effect
same,IC50,"[1]; Bos taurus, NS = overall inhibition less than 50%",> 71.5 µM
same,Effect on growth in the absence of growth factors,[2]; 1.4–71.5 μM,no significant effect
same,IC50,"[2]; Homo sapiens, Endothelial cell, NS = overall inhibition less than 50%",> 71.5 µM
same,IC50,[3]; Bos taurus,> 71.5 µM
same,"EGF-induced proliferation, IC50",[3],no significant inhibitory effect
same,"VEGF-induced proliferation, IC50",[4],no significant inhibitory effect
same,IC50,[4]; Bos taurus,> 71.5 µM
same,"VEGF-induced proliferation, IC50",[5],no significant inhibitory effect
same,IC50,[5]; Homo sapiens,> 71.5 µM
same,Cytotoxic effect,[6],no significant cytotoxic effect
same,Inhibition of FGF-2-induced ERK1/2 phosphorylation,[7],inhibited
same,Effect on binding to the VEGF receptor,[8],did not bind
